In patent US20240218022A1, “ANTI-VISTA MACROCYCLIC PEPTIDES AND COMPOSITIONS” (BRISTOL-MYERS SQUIBB COMPANY, priority 2022, published 2024):
Like-named read-outs stand apart in the source and are kept apart here. Starred links: 1 amine or outer side, 2 acyl side, 3 side chain; linkers in the order of their positions; H or OH if unused. Positions of bridges follow the written chain, without caps; N, C: chain ends. Non-standard residues stand in square brackets, D forms with d. Residues, ends and D or L forms follow the SMILES beside them. ξ: configuration not given here. Tyr(3-Cl) = N[C@@H](Cc1ccc(O)c(Cl)c1)C(=O)O; γGlu = O=C(O)[C@H](CCC(=O)[*:2])N[*:1]; 2Nal = N[C@@H](Cc1ccc2ccccc2c1)C(=O)O; βAsp = O=C(O)[C@H](CC(=O)[*:2])N[*:1]; Tic = O=C(O)[C@@H]1Cc2ccccc2CN1; Cit = NC(=O)NCCC[C@H](N)C(=O)O; Gly(cPr) = N[C@H](C(=O)O)C1CC1; Ile(3ξ) = CCC(C)[C@H](N)C(=O)O; Ahp(2) = CCCCC[C@H](N)C(=O)O; NMeNle = CCCC[C@H](NC)C(=O)O; Tle = CC(C)(C)[C@H](N)C(=O)O; Pip = O=C(O)[C@@H]1CCCCN1; NHexGly = CCCCCCNCC(=O)O; NMeA = CN[C@@H](C)C(=O)O; Nle = CCCC[C@H](N)C(=O)O; Orn = NCCC[C@H](N)C(=O)O; Aun = NCCCCCCCCCCC(=O)O; AEEA = NCCOCCOCC(=O)O

Target: T1, mouse VISTA (mVISTA) (Mus musculus, UniProt Q9D659)
T1 construct: expressed in transfected cells; host or cells: Human embryonic kidney 293T cells
T1 sequence (Q9D659 33-308): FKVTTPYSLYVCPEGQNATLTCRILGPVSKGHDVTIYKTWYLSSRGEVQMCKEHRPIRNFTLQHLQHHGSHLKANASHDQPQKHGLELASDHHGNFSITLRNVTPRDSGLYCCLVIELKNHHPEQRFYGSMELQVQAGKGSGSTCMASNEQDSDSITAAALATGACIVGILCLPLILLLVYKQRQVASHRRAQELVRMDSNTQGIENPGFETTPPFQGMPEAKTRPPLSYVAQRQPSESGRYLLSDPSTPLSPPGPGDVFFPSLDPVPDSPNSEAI
Assay: Cell-Based Binding High-Content Assay For mVISTA (HC CBA mVISTA)
Conditions: read-out: HC CBA mVISTA IC50
Method in brief: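 This high-content binding assay uses HEK293T cells expressing murine VISTA, measuring displacement of 2 nM biotinylated peptide by fluorescent streptavidin imaging. IC50 values come from four-parameter logistic fitting.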

[1] = 293T cells expressing mouse VISTA, competition with biotinylated peptide (2 nM)

| Structure (SMILES) | IC50 [µM] | other results |
| --- | --- | --- |
| CCCCCCN1CC(=O)N[C@@H](Cc2ccc(O)cc2)C(=O)N[C@@H](CC(C)C)C(=O)N[C@@H](CC(N)=O)C(=O)N[C@@H](CCCNC(=N)N)C(=O)N[C@@H](CC(C)C)C(=O)N[C@@H](CCCCC)C(=O)N2CCC[C@H]2C(=O)N[C@@H](C(C)(C)C)C(=O)N[C@@H](C(C)C)C(=O)N[C@H](C(=O)NCCOCCOCC(=O)N[C@@H](CCC(=O)NCCOCCOCC(=O)NCCCCCCCCCCC(=O)O)C(=O)O)CSCC(=O)N[C@@H](Cc2ccccc2)C(=O)N[C@@H](Cc2c[nH]c3ccccc23)C(=O)N[C@@H](CC(=O)O)C1=O [compound 2231] ({CH2CO}-FWD[NHexGly]YLNRL[Ahp(2)]P[Tle]VC[AEEA][γGlu][AEEA][Aun]-OH; thioether N-14) | 0.0425 | – |
| CCCCCCN1CC(=O)N[C@@H](Cc2ccc(O)cc2)C(=O)N[C@@H](CCCC)C(=O)N[C@@H](CC(N)=O)C(=O)N[C@@H](CCCNC(=N)N)C(=O)N(C)[C@@H](CCCC)C(=O)N[C@@H](CCCCC)C(=O)N2CCC[C@H]2C(=O)N[C@@H](C(C)(C)C)C(=O)N[C@@H](CC(=O)O)C(=O)N[C@H](C(=O)N[C@@H](CC(=O)O)C(N)=O)CSCC(=O)N[C@@H](Cc2ccccc2)C(=O)N[C@@H](Cc2c[nH]c3ccccc23)C(=O)N[C@@H](CC(=O)O)C1=O [Example 1371] ({CH2CO}-FWD[NHexGly]Y[Nle]NR[NMeNle][Ahp(2)]P[Tle]DCD-NH2; thioether N-14) | 0.0366 | – |
| CCCCCCN1CC(=O)N[C@@H](Cc2ccc(O)cc2)C(=O)N[C@@H](CCCCC)C(=O)N[C@@H](CC(=O)O)C(=O)N[C@@H](CCCNC(=N)N)C(=O)N[C@@H](CC(C)C)C(=O)N[C@@H](CCCCC)C(=O)N2CCC[C@H]2C(=O)N[C@@H](C(C)C)C(=O)N[C@@H](CC(=O)O)C(=O)N[C@H](C(=O)NCC(N)=O)CSCC(=O)N[C@@H](Cc2ccccc2)C(=O)N[C@@H](Cc2ccc(O)cc2)C(=O)N[C@@H](CC(=O)O)C1=O [Example 1015] ({CH2CO}-FYD[NHexGly]Y[Ahp(2)]DRL[Ahp(2)]PVDCG-NH2; thioether N-14) | – | IC50 [1]: 0.0087 µM |
| CCCCCCN1CC(=O)N[C@@H](Cc2ccc(O)cc2)C(=O)N[C@@H](CCCC)C(=O)N[C@@H](CC(N)=O)C(=O)N[C@@H](CCCNC(=N)N)C(=O)N(C)[C@@H](CCCC)C(=O)N[C@@H](CCCCC)C(=O)N2CCC[C@H]2C(=O)N[C@@H](C2CC2)C(=O)N[C@@H](CO)C(=O)N[C@H](C(=O)NCC(N)=O)CSCC(=O)N[C@@H](Cc2ccccc2)C(=O)N[C@@H](Cc2c[nH]c3ccccc23)C(=O)N[C@@H](CC(=O)O)C1=O [Example 1389] ({CH2CO}-FWD[NHexGly]Y[Nle]NR[NMeNle][Ahp(2)]P[Gly(cPr)]SCG-NH2; thioether N-14) | 0.0344 | – |
| CCCCCCN1CC(=O)N[C@@H](Cc2ccc(O)c(Cl)c2)C(=O)N[C@@H](CC(C)C)C(=O)N[C@@H](CC(N)=O)C(=O)N[C@@H](CCCN)C(=O)N(C)[C@@H](CCCC)C(=O)N[C@@H](CCCCC)C(=O)N2CCC[C@H]2C(=O)N[C@@H](C(C)(C)C)C(=O)N[C@@H](CO)C(=O)N[C@H](C(=O)N[C@@H](CC(=O)NCCOCCOCC(=O)N[C@@H](CC(=O)O)C(=O)NCCOCCOCC(=O)NCCCCCCCCCCC(=O)O)C(=O)O)CSCC(=O)N[C@@H](Cc2ccccc2)C(=O)N[C@@H](Cc2ccc(O)cc2)C(=O)N[C@@H](CC(=O)O)C1=O [compound 2336] ({CH2CO}-FYD[NHexGly][Tyr(3-Cl)]LN[Orn][NMeNle][Ahp(2)]P[Tle]SC[βAsp][AEEA]D[AEEA][Aun]-OH; thioether N-14) | – | IC50 (cell-based binding high-content assay): 0.024 µM |
| CCCCCCN1CC(=O)N[C@@H](Cc2ccc(O)cc2)C(=O)N[C@@H](CC(C)C)C(=O)NCC(=O)N[C@@H](CCCNC(=N)N)C(=O)N2Cc3ccccc3C[C@H]2C(=O)N[C@@H](CCCCC)C(=O)N2CCC[C@H]2C(=O)N[C@@H](C(C)C)C(=O)N[C@@H](CO)C(=O)N[C@H](C(=O)NCC(N)=O)CSCC(=O)N[C@@H](Cc2ccccc2)C(=O)N[C@@H](Cc2ccc(O)cc2)C(=O)N[C@@H](CC(=O)O)C1=O [compound 1158] ({CH2CO}-FYD[NHexGly]YLGR[Tic][Ahp(2)]PVSCG-NH2; thioether N-14) | 0.0111 | – |
| CCCCCCN1CC(=O)N[C@@H](Cc2ccc(O)cc2)C(=O)N[C@@H](C(C)CC)C(=O)NCC(=O)N[C@@H](CCCNC(=N)N)C(=O)N[C@@H](CC(C)C)C(=O)N[C@@H](CCCCC)C(=O)N2CCC[C@H]2C(=O)N[C@@H](C(C)C)C(=O)N[C@@H](CO)C(=O)N[C@H](C(=O)NCC(N)=O)CSCC(=O)N[C@@H](Cc2ccccc2)C(=O)N[C@@H](Cc2ccc(O)cc2)C(=O)N[C@@H](CC(=O)O)C1=O (some centres unmarked) [Example 1055] ({CH2CO}-FYD[NHexGly]Y[Ile(3ξ)]GRL[Ahp(2)]PVSCG-NH2; thioether N-14) | – | IC50 [1]: 0.0369 µM |
| CCCCCCN1CC(=O)N[C@@H](Cc2ccc(O)cc2)C(=O)N[C@@H](CCCC)C(=O)N[C@@H](CC(N)=O)C(=O)N[C@@H](CCCNC(=N)N)C(=O)N(C)[C@@H](CCCC)C(=O)N[C@@H](CCCCC)C(=O)N2CCCC[C@H]2C(=O)N[C@@H](Cc2ccccc2)C(=O)N[C@@H](CO)C(=O)N[C@H](C(=O)N[C@@H](CC(=O)NCCOCCOCC(=O)NCCCCCCCCCCC(=O)O)C(=O)O)CSCC(=O)N[C@@H](Cc2ccccc2)C(=O)N[C@@H](Cc2c[nH]c3ccccc23)C(=O)N[C@@H](CC(=O)O)C1=O [Example 2185] ({CH2CO}-FWD[NHexGly]Y[Nle]NR[NMeNle][Ahp(2)][Pip]FSC[βAsp][AEEA][Aun]-OH; thioether N-14) | 0.0501 | – |
| CCCCCCN1CC(=O)N[C@@H](Cc2ccc(O)cc2)C(=O)N[C@@H](CCCC)C(=O)N[C@@H](CC(N)=O)C(=O)N[C@@H](CCCNC(N)=O)C(=O)N[C@@H](CC(C)C)C(=O)N[C@@H](CCCCC)C(=O)N2CCC[C@H]2C(=O)N[C@@H](C(C)C)C(=O)N[C@@H](CC(=O)O)C(=O)N[C@H](C(=O)NCC(=O)O)CSCC(=O)N[C@@H](Cc2ccc3ccccc3c2)C(=O)N[C@@H](Cc2c[nH]c3ccccc23)C(=O)N[C@@H](CC(=O)O)C1=O [compound 1233] ({CH2CO}-[2Nal]WD[NHexGly]Y[Nle]N[Cit]L[Ahp(2)]PVDCG-OH; thioether N-14) | – | IC50 (cell-based binding high-content assay, mVISTA, the 15th table): 0.0105 µM |
| CCCCCCN1CC(=O)N[C@@H](Cc2ccc(O)cc2)C(=O)N[C@@H](CCCC)C(=O)N[C@@H](CC(=O)O)C(=O)N[C@@H](CCCNC(=N)N)C(=O)N[C@@H](CC(C)C)C(=O)N[C@@H](CCCCC)C(=O)N2CCC[C@H]2C(=O)N[C@@H](C(C)C)C(=O)N[C@@H](CC(=O)O)C(=O)N[C@H](C(=O)N[C@@H](CCC(=O)O)C(N)=O)CSCC(=O)N[C@@H](Cc2ccccc2)C(=O)N[C@@H](Cc2ccc(O)cc2)C(=O)N[C@@H](CC(=O)O)C1=O [Example 1005] ({CH2CO}-FYD[NHexGly]Y[Nle]DRL[Ahp(2)]PVDCE-NH2; thioether N-14) | – | IC50 [1]: 0.0127 µM |
| CCCCCCN1CC(=O)N[C@@H](Cc2ccc(O)cc2)C(=O)N[C@@H](CCCC)C(=O)N[C@@H](CC(N)=O)C(=O)N[C@@H](CCCNC(=N)N)C(=O)N(C)[C@@H](CCCC)C(=O)N[C@@H](CCCCC)C(=O)N(C)[C@@H](C)C(=O)N[C@@H](C(C)(C)C)C(=O)N[C@@H](CO)C(=O)N[C@H](C(=O)N[C@@H](CC(=O)NCCOCCOCC(=O)NCCCCCCCCCCC(=O)O)C(=O)O)CSCC(=O)N[C@@H](Cc2ccccc2)C(=O)N[C@@H](Cc2c[nH]c3ccccc23)C(=O)N[C@@H](CC(=O)O)C1=O [Example 2169] ({CH2CO}-FWD[NHexGly]Y[Nle]NR[NMeNle][Ahp(2)][NMeA][Tle]SC[βAsp][AEEA][Aun]-OH; thioether N-14) | 0.0198 | – |
| CCCCCCN1CC(=O)N[C@@H](Cc2ccc(O)cc2)C(=O)N[C@@H](CCCCC)C(=O)N[C@@H](CC(N)=O)C(=O)N[C@@H](CCCNC(=N)N)C(=O)N[C@@H](CC(C)C)C(=O)N[C@@H](CCCCC)C(=O)N2CCC[C@H]2C(=O)N[C@@H](C(C)C)C(=O)N[C@@H](CO)C(=O)N[C@H](C(=O)NCC(=O)N[C@@H](CCC(=O)O)C(=O)NCCCCCCCCCCC(=O)O)CSCC(=O)N[C@@H](Cc2ccccc2)C(=O)N[C@@H](Cc2ccc(O)cc2)C(=O)N[C@@H](CC(=O)O)C1=O [Example 2341] ({CH2CO}-FYD[NHexGly]Y[Ahp(2)]NRL[Ahp(2)]PVSCGE[Aun]-OH; thioether N-14) | – | IC50 [1]: 0.058 µM |
| CCCCCCN1CC(=O)N[C@@H](Cc2ccc(O)cc2)C(=O)N[C@@H](CCCC)C(=O)N[C@@H](CC(N)=O)C(=O)N[C@@H](CCCNC(=N)N)C(=O)N2Cc3ccccc3C[C@H]2C(=O)N[C@@H](CCCCC)C(=O)N2CCC[C@H]2C(=O)N[C@@H](C(C)C)C(=O)N[C@@H](CO)C(=O)N[C@H](C(=O)NCC(N)=O)CSCC(=O)N[C@@H](Cc2ccc3ccccc3c2)C(=O)N[C@@H](Cc2ccc(O)cc2)C(=O)N[C@@H](CC(=O)O)C1=O [Ex 1304] ({CH2CO}-[2Nal]YD[NHexGly]Y[Nle]NR[Tic][Ahp(2)]PVSCG-NH2; thioether N-14) | – | IC50 (cell-based binding high-content assay, mVISTA, the 16th table): 0.0315 µM |
| CCCCCCN1CC(=O)N[C@@H](Cc2ccc(O)cc2)C(=O)N[C@@H](CC(C)C)C(=O)N[C@@H](CC(N)=O)C(=O)N[C@@H](CCCN)C(=O)N(C)[C@@H](CCCC)C(=O)N[C@@H](CCCCC)C(=O)N2CCC[C@H]2C(=O)N[C@@H](C(C)(C)C)C(=O)N[C@@H](C(C)C)C(=O)N[C@H](C(=O)NCCOCCOCC(=O)N[C@@H](CCC(=O)NCCOCCOCC(=O)NCCCCCCCCCCC(=O)O)C(=O)O)CSCC(=O)N[C@@H](Cc2ccccc2)C(=O)N[C@@H](Cc2ccc(O)cc2)C(=O)N[C@@H](CC(=O)O)C1=O [compound 2279] ({CH2CO}-FYD[NHexGly]YLN[Orn][NMeNle][Ahp(2)]P[Tle]VC[AEEA][γGlu][AEEA][Aun]-OH; thioether N-14) | 0.0286 | – |
